Measured values reported in the supplement of paper PMC10307832.

compound: Cc1nc(C(=O)NCC(=O)O)c(O)c2ccc(Oc3ccccc3)cc12 [FG-4592] + COc1cc2c(Oc3ccc(NC(=O)C4(C(=O)Nc5ccc(F)cc5)CC4)cc3F)ccnc2cc1OCCCN1CCOCC1 [Foretinib] (partner 0.25 µM); assay: relative viability (nuclei count vs DMSO), 5 days (fraction); higher = more cells survive; settings: first compound 8 µM
Summary of the method: (§1)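 A single step with final 0.05% Triton X-100, 1% formaldehyde and 1 ug/ml Hoechst fixed the cells and stained nuclei 5 days after treatment. Lung cancer cell lines in 1536-well plates had been treated by pin tool the day after seeding with one drug alone or a fixed anchor-drug dose plus five library-drug doses (not always all listed) in √10 steps, and nuclei were counted on 4× images. Relative viability is the ratio of nuclei in treated wells to nuclei in vehicle wells, taken as the median of duplicate plates.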

Row | Cell Line | relative viability
1 | NCI-H596 | 0.465
2 | LK-2 | 0.993
3 | NCI-H2087 | 1.11
4 | NCI-H2342 | 0.993
5 | SK-MES-1 | 0.836
6 | H3255 | 0.947
7 | COR-L23 | 0.991
8 | IA-LM | 1.08
9 | A549 | 0.866
10 | SW 900 | 0.833
11 | NCI-H661 | 0.938
12 | NCI-H1299 | 1.07
13 | NCI-H1563 | 0.82
14 | ABC-1 | 0.76
15 | NCI-H358 | 0.632
16 | NCI-H650 | 0.861

compound: Cc1nc(C(=O)NCC(=O)O)c(O)c2ccc(Oc3ccccc3)cc12 [FG-4592] + Nc1nc2[nH]cc(CCc3ccc(C(=O)N[C@@H](CCC(=O)O)C(=O)O)cc3)c2c(=O)[nH]1 [Pemetrexed] (partner 0.2 µM); assay: as above; settings: first compound 0.08 µM
Summary of the method: as §1

Row | Cell Line | relative viability
17 | NCI-H522 | 1.11
18 | NCI-H1650 | 0.388
19 | NCI-H1993 | 0.644
20 | SW 1573 | 0.753
21 | NCI-H838 | 0.257
22 | LCLC-103H | 0.435
23 | NCI-H520 | 0.62
24 | NCI-H2126 | 0.701
25 | EMC-BAC-2 | 0.407
26 | NCI-H2085 | 0.934
27 | HCC-366 | 0.182
28 | NCI-H1666 | 0.771
29 | NCI-H596 | 0.455
30 | LK-2 | 0.26
31 | NCI-H2087 | 0.604
32 | NCI-H2342 | 0.682
33 | SK-MES-1 | 0.88
34 | H3255 | 0.586
35 | COR-L23 | 0.205
36 | HCC-44 | 0.615
37 | NCI-H1648 | 0.753
38 | NCI-H661 | 0.904
39 | NCI-H1792 | 0.691
40 | NCI-H1563 | 0.628
41 | NCI-H358 | 0.169
42 | NCI-H650 | 0.978

same assay, conditions: first compound 0.253 µM

Row | Cell Line | relative viability
43 | NCI-H522 | 0.878
44 | NCI-H1650 | 0.346
45 | NCI-H1993 | 0.48
46 | SW 1573 | 0.638
47 | NCI-H838 | 0.279
48 | LCLC-103H | 0.456
49 | NCI-H520 | 0.766
50 | NCI-H2126 | 0.583
51 | EMC-BAC-2 | 0.407
52 | NCI-H2085 | 0.769
53 | HCC-366 | 0.148
54 | NCI-H1666 | 0.836
55 | NCI-H596 | 0.521
56 | LK-2 | 0.277
57 | NCI-H2087 | 0.565
58 | NCI-H2342 | 0.767
59 | SK-MES-1 | 0.833
60 | H3255 | 0.538
61 | COR-L23 | 0.204
62 | HCC-44 | 0.652
63 | SW 900 | 0.48
64 | NCI-H1648 | 0.786
65 | NCI-H661 | 0.903
66 | NCI-H1792 | 0.76
67 | NCI-H1563 | 0.732
68 | NCI-H358 | 0.165
69 | NCI-H650 | 0.871

same assay, conditions: first compound 0.8 µM

Row | Cell Line | relative viability
70 | NCI-H1650 | 0.409
71 | SW 1573 | 0.805
72 | NCI-H838 | 0.227
73 | LCLC-103H | 0.51
74 | NCI-H520 | 0.774
75 | NCI-H2126 | 0.656
76 | EMC-BAC-2 | 0.447
77 | NCI-H2085 | 0.81
78 | HCC-366 | 0.242
79 | NCI-H1666 | 0.932
80 | NCI-H2087 | 0.658
81 | NCI-H2342 | 0.77
82 | SK-MES-1 | 0.927
83 | H3255 | 0.567
84 | COR-L23 | 0.171
85 | HCC-44 | 0.705
86 | NCI-H661 | 0.944
87 | NCI-H1563 | 0.6
88 | NCI-H358 | 0.164
89 | NCI-H650 | 0.848

same assay, conditions: first compound 2.53 µM

Row | Cell Line | relative viability
90 | NCI-H522 | 0.728
91 | NCI-H1650 | 0.362
92 | NCI-H1993 | 0.487
93 | SW 1573 | 0.809
94 | NCI-H838 | 0.244
95 | LCLC-103H | 0.478
96 | NCI-H520 | 0.8
97 | NCI-H2126 | 0.609
98 | EMC-BAC-2 | 0.434
99 | NCI-H2085 | 0.863
100 | HCC-366 | 0.181
101 | NCI-H1666 | 0.834
102 | NCI-H596 | 0.538
103 | LK-2 | 0.239
104 | NCI-H2342 | 0.8
105 | SK-MES-1 | 0.906
106 | H3255 | 0.573
107 | COR-L23 | 0.194
108 | HCC-44 | 0.688
109 | SW 900 | 0.493
110 | NCI-H1648 | 0.595
111 | NCI-H661 | 0.894
112 | NCI-H1792 | 0.619
113 | NCI-H1563 | 0.759
114 | NCI-H358 | 0.176
115 | NCI-H650 | 0.812

same assay, conditions: first compound 8 µM

Row | Cell Line | relative viability
116 | NCI-H522 | 0.869
117 | NCI-H1650 | 0.344
118 | NCI-H1993 | 0.594
119 | SW 1573 | 0.535
120 | NCI-H838 | 0.253
121 | LCLC-103H | 0.457
122 | NCI-H520 | 0.698
123 | NCI-H2126 | 0.696
124 | EMC-BAC-2 | 0.423
125 | NCI-H2085 | 1.07
126 | HCC-366 | 0.258
127 | NCI-H1666 | 0.722
128 | NCI-H596 | 0.457
129 | LK-2 | 0.268
130 | NCI-H2087 | 0.591
131 | NCI-H2342 | 0.738
132 | SK-MES-1 | 0.917
133 | H3255 | 0.56
134 | COR-L23 | 0.187
135 | HCC-44 | 0.725
136 | SW 900 | 0.487
137 | NCI-H1648 | 1.12
138 | NCI-H661 | 1.02
139 | NCI-H1792 | 0.651
140 | NCI-H1563 | 0.715
141 | NCI-H358 | 0.179
142 | NCI-H650 | 0.726

compound: Cc1nc(C(=O)NCC(=O)O)c(O)c2ccc(Oc3ccccc3)cc12 [FG-4592] + CC1(C)CCC(c2ccc(Cl)cc2)=C(CN2CCN(c3ccc(C(=O)NS(=O)(=O)c4ccc(N[C@H](CCN5CCOCC5)CSc5ccccc5)c(S(=O)(=O)C(F)(F)F)c4)cc3)CC2)C1 [Navitoclax] (partner 0.5 µM); assay: as above; settings: first compound 0.08 µM
Summary of the method: as §1

Row | Cell Line | relative viability
143 | NCI-H727 | 0.537
144 | NCI-H1650 | 1.23
145 | EBC-1 | 0.469
146 | NCI-H1703 | 1.01
147 | NCI-H1993 | 0.946
148 | SW 1573 | 0.771
149 | NCI-H838 | 1.27
150 | NCI-H520 | 1.03
151 | NCI-H2126 | 0.825
152 | EMC-BAC-2 | 1.13
153 | NCI-H2085 | 1.18
154 | Calu-6 | 0.795
155 | HCC-366 | 1.07
156 | NCI-H1666 | 1.01
157 | NCI-H596 | 0.897
158 | LK-2 | 0.87
159 | NCI-H2087 | 1.01
160 | SK-MES-1 | 1.15
161 | H3255 | 0.554
162 | COR-L23 | 0.924
163 | IA-LM | 0.785
164 | HCC-44 | 1.01
165 | A549 | 1.25
166 | NCI-H1299 | 1.07
167 | NCI-H1792 | 0.619

same assay, conditions: first compound 0.253 µM

Row | Cell Line | relative viability
168 | NCI-H727 | 0.403
169 | NCI-H1650 | 1.12
170 | EBC-1 | 0.389
171 | NCI-H1703 | 0.862
172 | NCI-H1993 | 0.907
173 | SW 1573 | 0.933
174 | NCI-H838 | 1.09
175 | NCI-H520 | 1.05
176 | NCI-H2126 | 0.773
177 | EMC-BAC-2 | 1.12
178 | NCI-H2085 | 1.09
179 | Calu-6 | 0.734
180 | HCC-366 | 0.903
181 | NCI-H1666 | 0.674
182 | NCI-H596 | 0.914
183 | LK-2 | 0.771
184 | NCI-H2087 | 0.946
185 | SK-MES-1 | 1.18
186 | H3255 | 0.387
187 | COR-L23 | 0.98
188 | IA-LM | 0.707
189 | HCC-44 | 0.935
190 | A549 | 1.21
191 | NCI-H1299 | 1.03
192 | NCI-H1792 | 0.554

same assay, conditions: first compound 0.8 µM

Row | Cell Line | relative viability
193 | NCI-H727 | 0.413
194 | NCI-H1650 | 1.37
195 | EBC-1 | 0.425
196 | NCI-H1703 | 1.16
197 | NCI-H1993 | 0.696
198 | SW 1573 | 1.02
199 | NCI-H838 | 1.09
200 | NCI-H520 | 1.05
201 | NCI-H2126 | 0.817
202 | EMC-BAC-2 | 1.11
203 | NCI-H2085 | 1.1
204 | Calu-6 | 0.974
205 | HCC-366 | 1.12
206 | NCI-H1666 | 1.07
207 | LK-2 | 0.734
208 | NCI-H2087 | 1.04
209 | SK-MES-1 | 1.32
210 | H3255 | 0.523
211 | COR-L23 | 1.14
212 | IA-LM | 0.899
213 | HCC-44 | 0.997
214 | A549 | 1.27
215 | NCI-H1299 | 1.02
216 | NCI-H1792 | 0.575

same assay, conditions: first compound 2.53 µM

Row | Cell Line | relative viability
217 | NCI-H727 | 0.63
218 | NCI-H1650 | 1.17
219 | EBC-1 | 0.493
220 | NCI-H1703 | 1.13
221 | NCI-H1993 | 1.09
222 | SW 1573 | 0.937
223 | NCI-H838 | 1.2
224 | NCI-H520 | 1.07
225 | NCI-H2126 | 0.875
226 | EMC-BAC-2 | 1.16
227 | NCI-H2085 | 1.15
228 | Calu-6 | 0.914
229 | HCC-366 | 1.1
230 | NCI-H1666 | 0.905
231 | NCI-H596 | 0.991
232 | LK-2 | 0.836
233 | NCI-H2087 | 0.98
234 | SK-MES-1 | 1.25
235 | H3255 | 0.596
236 | COR-L23 | 0.909
237 | IA-LM | 0.481
238 | HCC-44 | 1.11
239 | A549 | 1.28
240 | NCI-H1299 | 1.02
241 | NCI-H1792 | 0.611

same assay, conditions: first compound 8 µM

Row | Cell Line | relative viability
242 | NCI-H727 | 0.525
243 | NCI-H1650 | 1.24
244 | EBC-1 | 0.397
245 | NCI-H1703 | 1.02
246 | NCI-H1993 | 0.898
247 | SW 1573 | 0.803
248 | NCI-H838 | 1.11
249 | NCI-H520 | 0.879
250 | NCI-H2126 | 0.807
251 | EMC-BAC-2 | 1.09
252 | NCI-H2085 | 1.08
253 | Calu-6 | 0.87
254 | HCC-366 | 1.04
255 | NCI-H1666 | 0.879
256 | NCI-H596 | 0.817
257 | LK-2 | 0.674
258 | NCI-H2087 | 1.03
259 | SK-MES-1 | 1.39
260 | H3255 | 0.6
261 | COR-L23 | 0.932
262 | IA-LM | 0.397
263 | HCC-44 | 1.03
264 | A549 | 1.08
265 | NCI-H1299 | 1.1
266 | NCI-H1792 | 0.644
